In general, Inhibition refers to the relative decrease from the control value, in per cent. A high value points to a strong effect. In general, IC50 refers to the point on the concentration scale where inhibition reaches its midpoint.

The values below come from patent EP2402020B1, “Pharmaceutical composition comprising extracts of Bupleurum krylovianum for use in the treatment of arthritis and rheumatoid arthritis” (Industrial Technology Research Institute, priority 2010, dated 2012).

Converted amounts (≈) assume the structure as drawn.

Test [1] concerns IL-6. The test is described as follows: TNBS enteritis mouse model: IL-6 in colon infusion. The test is classed as in vivo, BABL/c mice. The conditions noted are these: 0.6mg/kg fed + 1.75mg of TNBS into the colon; colon infusion after 48 hours; negative value = enhanced excretion. The source says: (§1) The BABL/c mice were categorized into 4 groups. Each group had 6 […].
In test [2] the test system is TNF-α. The test is described as follows: TNBS enteritis mouse model: TNF-α in colon infusion. The following applies: 0.6mg/kg fed + 1.75mg of TNBS into the colon; colon infusion after 48 hours; negative value = enhanced excretion. The test is classed as in vivo, BABL/c mice.
Description: as §1

The subject of test [3] is carrageenan induced hindpaw edema. Put plainly: Carrageenan induced hindpaw edema in a rat model (plethysmometer). The following applies: 3 mg/kg fed 1 hour before carrageenan (positive control). The class given is in vivo, Long-Evan rats. As to the method:
Long-Evan rats were fed with the extract (a) in Example 5 (i) in an amount of 250mg/kg, 500 mg/kg, 1000mg/kg, respectively. The positive control was fed with 3mg/kg of indomethacin (NSAID). The negative control was fed with 10ml/kg of 2% Tween 80 as a carrier After 1 hour, the rats were injected 0.1ml of 1% carrageenan on the left hindpaw. The volume of the rat's left hindpaw was measured by plethysmometer (Stoelting) at the 0, 1.5th, and 3rd hour after injection. The inhibition was calculated by the formula :
Inhibition (%)=(Nt-Nv)/Nv × 100
In the formula, Nt represents the left hindpaw volume of the rat fed with the ethanol extract; Nv represents the left hindpaw of the rat fed with the carrier.
A general note: Carrageenan injected into the paw causes an acute inflammation.

The subject of test [4] is IL-6. The test is described as follows: IL-6 excretion by LPS-stimulated, PMA-activated U937 cells (ELISA). The class given is cell-based, human. The following applies: activated U937, 30 minutes preincubation, LPS stimulation 16-18 hours, supernatant ELISA. On the procedure:
The cell line, U937, was cultured like Example 13. The activated U937 was /s then seeded in a 96-well plate in a concentration of 1.6×10^5 cell/well. The wells were added 6.3 µg/ml, […], 25 µg/ml and 50 µg/ml of kaerophyllin and 3.8 µg/ml, 7.5 µg/ml, 15 µg/ml and 30 µg/ml of isokaerphyllin and 10 µl of buffer, respectively. Each well was adjusted to a final volume of 190 µl. The plate was put under 37°C for 30 minutes. Each well was added 10µl of 20 µg/ml LPS to stimulate cells. After 16-18 hours under 37°C, the plate was centrifuged to collect the supernatants.
The amount of IL-6 in the supernatant was measured by ELISA (R&D System®) based on the control (DMSO). Meanwhile, the cell viability was measured by MTT assay (Sigma).

The test system of test [5] is TNF-α. Put plainly: TNF-α excretion by LPS-stimulated, PMA-activated U937 cells (ELISA). The class given is cell-based, human. The following applies: activated U937, 30 minutes preincubation, LPS stimulation 4 hours, supernatant ELISA. On the procedure: The cell line, U937 (human monocyte cell line), was incubated in RPMI medium containing 50 ng/ml PMA (phorbol 12-myristate 13-acetate) (Sigma) and 10% fetal bovine serum (Moor et. al., Roswell Park Memorial Institute) for 24 hours. The cell line was then moved to the RPMI medium without PMA for further 48 hours. The activated U937 was seeded into a 96-well plate in a concentration of 1.6×10^5 cell/well. The wells were added 12.5 µg/ml, 25 µg/ml, 50 µg/ml and 100 µg/ml of kaerophyllin and 1 µg/ml, 3 µg/ml, 10 µg/ml and 30 µg/ml of isokaerphyllin and 10 µl of buffer, respectively. Each well was adjusted to a final volume of 190 µl. The plate was reacted under 37°C for 30 minutes. Each well was added 10 µl of 20 µg/ml LPS to stimulate cells. After 4 hours under 37°C, the plate was centrifuged to collect the supernatants.
The amount of TNF-α in the supernatant was measured by ELISA (R&D System®) based on the control (DMSO). Meanwhile, the cell viability was measured by MTT assay (Sigma).
Background: In an ELISA, binding on a coated surface is turned into a signal by an enzyme label.

Turning to `C[C@@H]1C[C@H]2[C@@H]3CCC4=CC(=O)C=C[C@]4(C)[C@@]3(F)[C@@H](O)C[C@]2(C)[C@@]1(O)C(=O)CO` [DEX, dexamethasone], in the test with IL-6 [1], the “Inhibition of IL-6 (%)” value is -55%. In the test with TNF-α [2], the “Inhibition of TNF-α(%)” value amounted to 9%.
`COc1ccc2c(c1)c(CC(=O)O)c(C)n2C(=O)c1ccc(Cl)cc1` [indomethacin]: the “Inhibition at 0 hour (%)” value in test [3] (left hindpaw volume at 0 hour) came to 0%. In test [3] (left hindpaw volume at 1.5th hour), the “Inhibition at the 1.5th hour (%)” value came out at 21%. Further, the “Inhibition at the 3rd hour (%)” value in test [3] (left hindpaw volume at 3rd hour) came to 52%.
In the case of `COc1ccc(/C=C2/C(=O)OC[C@@H]2Cc2ccc3c(c2)OCO3)cc1OC` [kaerophyllin, trans-(3,4-dimethoxybenzylidene)-β-(3,4-methylenedioxylbenzyl)-γ-butyrolactone], the IC50 in the test on IL-6 [4] (Homo sapiens, U-937, read-out: IC50 value (inhibition of the excretion of IL-6)) worked out at 13 ± 2 µg/mL (≈ 35.3 µM); with TNF-α [5] (Homo sapiens, U-937, read-out: IC50 value (inhibition of the excretion of TNF-α)), 44 ± 5 µg/mL (≈ 119 µM).
Regarding “cis-(3,4-dimethoxybenzylidene)-β-(3,4-methylenedioxylbenzyl)-γ-butyrolactone [isokaerophyllin]”, in the test on IL-6 [4], the “IC50 value (inhibition of the excretion of IL-6)” value was 24 ± 6 µg/mL. In addition, the “IC50 value (inhibition of the excretion of TNF-α)” value with TNF-α [5] was determined as 18 ± 4 µg/mL.
